# Patent US9540338B2, “Substituted cinnamic acid amides for treating pain” (NIPPON ZOKI PHARMACEUTICAL CO., LTD., priority 2012, dated 2017)
# Structures can show the parent of a compound that is named as a salt. Marks after values point to notes of the source that are not given here.
# How the values were obtained:
# Chung model rat = assay: Analgesic efficacy test (2): Chung model rat, neuropathic pain model (allodynia, von Frey filament); format: in vivo, rats; details: mean ± standard error
# Procedure: An analgesic efficacy test was conducted using a Chung model rat, a neuropathic pain model. Nine-week old Wistar male rats were previously bred as an experimental animal, and a model rat was then prepared in accordance with the method of Kim and Chung (Pain, 50, 355-363, 1992). Specifically, left L5 spinal nerves of rats were exposed under anesthetization with pentobarbital (40 mg/kg, intraperitoneal administration), and firmly ligated with 5-0 silk yarn at L5 dorsal root ganglion peripheral side. The animals were placed in a transparent acrylic cage of which bottom was wire netted The measurement of allodynia was carried out using von Frey filament (manufactured by North Coast Medical Inc.) and a 50% reaction threshold was calculated according to an up-down method, in accordance with a method of Chaplan et al. (J. Neurosci. Method, 53, 55-63, 1994). The 50% reaction thresholds were measured twice before injury of the spinal nerve, and those animals of which thresholds were outside the standard were removed from the operation of spinal nerve injury. On or after 14 days from the spinal nerve injury, a 50% reaction threshold was measured, and those showing thresholds of 1 g or more and less than 4 g were used as experimental animal. The group was constituted by 7 or 8 rats per group so that an average of a 50% reaction threshold for each group would be nearly even.
# A solution or suspension prepared by dissolving or suspending a compound of the present invention in a 0.5% (w/v) aqueous CMC-Na solution was orally administered as a test substance in a single dose. Also, a 0.5% (w/v) aqueous CMC-Na solution was administered in the same manner to the control group for nerve injury. The measurements of allodynia were carried out with the passage of time after administration, and a 50% reaction threshold (mean±standard error) of each group at action peak was calculated. In the test for significance difference, Bartlett's test was carried out in the comparison between multiple groups of the group administered with test substance with the control group for nerve injury. In the case of homoscedasticity, Dunnett's multiple comparison test of parametrics, and in the case of heteroscedasticity, Dunnett's multiple comparison test of non-parametrics were used. In all cases, significance difference was considered to be found at P<0.05 (indicated as “*” in the tables).
# [1] = oral 1 mg/kg, measurement point 90 minute (action peak)
# [2] = oral 10 mg/kg, measurement point 90 minute (action peak)
# [3] = oral 1 mg/kg, measurement point 60 minute (action peak)
# [4] = oral 10 mg/kg, measurement point 60 minute (action peak)
SMILES,melting point,also measured
Cl.O=C(/C=C/c1ccccc1F)NCCc1cccnc1,116 to 117 °C,
CN(C)CCCCNC(=O)/C=C/c1ccccc1F.Cl,107 to 108 °C,
Cl.O=C(/C=C/c1cccc(C(=O)O)c1)NCCn1ccnc1,195 to 197 °C,
Cl.O=C(/C=C/c1ccc(C(=O)O)cc1)NCCn1ccnc1,237 to 238 °C,
Cl.O=C(/C=C/c1ccccc1C(F)(F)F)NCCCN1CCOCC1,197 to 198 °C,
Cl.O=C(/C=C/c1ccccc1F)NCCCN1CCCCC1,166 to 167 °C,
Cl.O=C(/C=C/c1ccccc1F)NCCCNC1CCCCC1,227 to 228 °C,
C/C(=C\c1ccccc1F)C(=O)NCCCN1CC[S+]([O-])CC1.Cl,180 to 181 °C,
O=C(/C=C/c1ccccc1F)NCCCN1CCNCC1 (as salt: hydrochloride),143 to 144 °C,
"O=C(/C=C/c1ccccc1F)NCCc1ccccn1 (as salt: hydrochloride) [Compound 9, (E)-3-(2-Fluorophenyl)-N-[2-(2-pyridyl)ethyl]-2-propenamide hydrochloride]",86 to 87 °C,
"CN1CCN(CCCNC(=O)/C=C/c2ccccc2F)CC1 (as salt: hydrochloride) [Compound 15, (E)-3-(2-Fluorophenyl)-N-[3-(4-methylpiperazin-1-yl)propyl]-2-propenamide dihydrochloride]",133 to 138 °C,
"O=C(/C=C/c1ccccc1F)NCCN1CCNCC1 (as salt: hydrochloride) [Compound 16, (E)-3-(2-Fluorophenyl)-N-[2-(piperazin-1-yl)ethyl]-2-propenamide dihydrochloride]",212 to 213 °C,
"Nc1ccccc1CCNC(=O)/C=C/c1ccccc1F [Compound 19, (E)-N-[2-(2-Aminophenyl)ethyl]-3-(2-fluorophenyl)-2-propenamide]",128 to 129 °C,
"O=C(/C=C/c1ccccc1F)NCCn1cnc2ccccc21 [Compound 22, (E)-N-[2-(Benzoimidazol-1-yl)ethyl]-3-(2-fluorophenyl)-2-propenamide]",143 to 145 °C,
"O=C(/C=C/c1ccc(F)cc1F)NCCn1ccnc1 [Compound 23, (E)-3-(2,4-Difluorophenyl)-N-[2-(imidazol-1-yl)ethyl]-2-propenamide]",113 to 115 °C,"50% Reaction Threshold, Group Administered with Test Substance, After Administration (Chung model rat; [1]): 8.22 ± 1.43* g; 50% Reaction Threshold, Group Administered with Test Substance, After Administration (Chung model rat; [2]): 9.81 ± 1.27* g"
"O=C(/C=C/c1cc(F)ccc1F)NCCn1ccnc1 [Compound 24, (E)-3-(2,5-Difluorophenyl)-N-[2-(imidazol-1-yl)ethyl]-2-propenamide]",118 to 120 °C,"50% Reaction Threshold, Group Administered with Test Substance, After Administration (Chung model rat; [3]): 4.63 ± 0.36 g; 50% Reaction Threshold, Group Administered with Test Substance, After Administration (Chung model rat; [4]): 7.85 ± 0.99* g"
"O=C(/C=C/c1cccc(F)c1)NCCCN1CCOCC1 [Compound 25, (E)-3-(3-Fluorophenyl)-N-(3-morpholinopropyl)-2-propenamide]",80 to 81 °C,"50% Reaction Threshold, Group Administered with Test Substance, After Administration (Chung model rat; [3]): 8.17 ± 1.09* g; 50% Reaction Threshold, Group Administered with Test Substance, After Administration (Chung model rat; [4]): 9.68 ± 1.20* g"
"O=C(/C=C/c1ccc(F)cc1)NCCCN1CCOCC1 [Compound 26, (E)-3-(4-Fluorophenyl)-N-(3-morpholinopropyl)-2-propenamide]",88 to 89 °C,"50% Reaction Threshold, Group Administered with Test Substance, After Administration (Chung model rat; [3]): 10.25 ± 1.07* g; 50% Reaction Threshold, Group Administered with Test Substance, After Administration (Chung model rat; [4]): 14.33 ± 0.67* g"
"O=C(/C=C/c1cccc(F)c1F)NCCCN1CCOCC1 [Compound 27, (E)-3-(2,3-Difluorophenyl)-N-(3-morpholinopropyl)-2-propenamide]",97 to 99 °C,

SMILES,melting point,also measured
"O=C(/C=C/c1ccc(F)cc1F)NCCCN1CCOCC1 [Compound 28, (E)-3-(2,4-Difluorophenyl)-N-(3-morpholinopropyl)-2-propenamide]",94 to 95 °C,"50% Reaction Threshold, Group Administered with Test Substance, After Administration (Chung model rat; [3]): 8.44 ± 1.81* g; 50% Reaction Threshold, Group Administered with Test Substance, After Administration (Chung model rat; [4]): 12.05 ± 1.44* g"
"O=C(/C=C/c1cc(F)ccc1F)NCCCN1CCOCC1 [Compound 29, (E)-3-(2,5-Difluorophenyl)-N-(3-morpholinopropyl)-2-propenamide]",71 to 72 °C,"50% Reaction Threshold, Group Administered with Test Substance, After Administration (Chung model rat; [3]): 5.10 ± 0.42 g; 50% Reaction Threshold, Group Administered with Test Substance, After Administration (Chung model rat; [4]): 10.51 ± 1.15* g"
"O=C(/C=C/c1c(F)cccc1F)NCCCN1CCOCC1 [Compound 30, (E)-3-(2,6-Difluorophenyl)-N-(3-morpholinopropyl)-2-propenamide]",75 to 76 °C,
"O=C(/C=C/c1ccc(F)c(F)c1)NCCCN1CCOCC1 [Compound 31, (E)-3-(3,4-Difluorophenyl)-N-(3-morpholinopropyl)-2-propenamide]",127 to 128 °C,
"O=C(/C=C/c1ccc(C(F)(F)F)cc1F)NCCCN1CCOCC1 [Compound 32, (E)-3-(2-Fluoro-4-trifluoromethylphenyl)-N-(3-morpholinopropyl)-2-propenamide]",102 to 103 °C,
"O=C(/C=C/c1ccccc1F)NCCN1CCCC1 [Compound 35, (E)-3-(2-Fluorophenyl)-N-[2-(pyrrolidin-1-yl)ethyl]-2-propenamide]",83 to 84 °C,
"O=C(/C=C/c1ccccc1F)NCCN1CCCCCC1 [Compound 36, (E)-N-[(2-Azepan-1-yl)ethyl]-3-(2-fluorophenyl)-2-propenamide]",80 to 81 °C,
"COc1ccc(CCNC(=O)/C=C/c2ccccc2F)cc1 [Compound 37, (E)-3-(2-Fluorophenyl)-N-[2-(4-methoxyphenyl)ethyl]-2-propenamide]",123 to 124 °C,
"O=C(/C=C/c1ccccc1F)NCCn1cncn1 [Compound 39, (E)-3-(2-Fluorophenyl)-N-[2-([1,2,4]triazol-1-yl)ethyl]-2-propenamide dihydrochloride]",,"50% Reaction Threshold, Group Administered with Test Substance, After Administration (Chung model rat; [1]): 3.55 ± 0.59 g; 50% Reaction Threshold, Group Administered with Test Substance, After Administration (Chung model rat; [2]): 4.05 ± 0.48* g"
"O=C(/C=C/c1ccccc1F)NCCn1ccc2ccccc21 [Compound 41, (E)-3-(2-Fluorophenyl)-N-[2-(indol-1-yl)ethyl]-2-propenamide]",96 to 98 °C,
"O=C(/C=C/c1ccccc1F)NCCn1ccnc1-c1ccccc1 [Compound 44, (E)-3-(2-Fluorophenyl)-N-[2-(2-phenylimidazol-1-yl)ethyl]-2-propenamide]",163 to 164 °C,
"Cl.O=C(/C=C/c1ccccc1F)NCCCn1ccnc1 [Compound 45, (E)-3-(2-Fluorophenyl)-N-[3-(imidazol-1-yl)propyl]-2-propenamide hydrochloride]",,"50% Reaction Threshold, Group Administered with Test Substance, After Administration (Chung model rat; [1]): 8.81 ± 1.05* g; 50% Reaction Threshold, Group Administered with Test Substance, After Administration (Chung model rat; [2]): 12.23 ± 1.10* g"
"O=C(/C=C/c1ccccc1C(=O)O)NCCn1ccnc1 [Compound 47, (E)-3-(2-Carboxyphenyl)-N-[(2-imidazol-1-yl)ethyl]-2-propenamide]",,"50% Reaction Threshold, Group Administered with Test Substance, After Administration (Chung model rat; [3]): 10.58 ± 1.74* g; 50% Reaction Threshold, Group Administered with Test Substance, After Administration (Chung model rat; [4]): 13.58 ± 0.67* g"
"O=C(/C=C/c1ccccc1F)Nc1ccc(-c2ccn[nH]2)cc1 [Compound 51, (E)-3-(2-Fluorophenyl)-N-[4-(2H-pyrazol-3-yl)phenyl]-2-propenamide]",116 to 118 °C,
"O=C(/C=C/c1ccccc1F)Nc1cccc(-c2ccn[nH]2)c1 [Compound 52, (E)-3-(2-Fluorophenyl)-N-[3-(2H-pyrazol-3-yl)phenyl]-2-propenamide]",,"50% Reaction Threshold, Group Administered with Test Substance, After Administration (Chung model rat; oral 1 mg/kg, measurement point 30 minute (action peak)): 7.42 ± 1.14* g; 50% Reaction Threshold, Group Administered with Test Substance, After Administration (Chung model rat; oral 10 mg/kg, measurement point 30 minute (action peak)): 9.12 ± 2.00* g"
"O=C(/C=C/c1ccccc1F)Nc1ccc(-c2ccno2)cc1 [Compound 53, (E)-3-(2-Fluorophenyl)-N-[4-(isoxazol-5-yl)phenyl]-2-propenamide]",204 to 206 °C,
"N#C/C(=C\c1ccc(F)cc1)C(=O)NCCCN1CCOCC1 [Compound 58, (E)-2-Cyano-3-(4-fluorophenyl)-N-(3-morpholinopropyl)-2-propenamide]",110 to 111 °C,
"O=C(O)CCNC(=O)/C=C/c1ccccc1F [Compound 66, 3-{[(E)-3-(2-Fluorophenyl)-2-propenoyl]amino}propanoic acid]",193 to 195 °C,
